This note sets out measurements from patent US8921372B2, “Inhibitors of hepatitis C virus” (Theravance Biopharma R&D IP, LLC, priority 2010, dated 2014).

Assay [1] has as its system HCV genotype 1b replicon cell line (APC144; Huh7 cell background). In words: HCV Genotype 1b Replicon Assay (Renilla luciferase readout). It is filed as cell-based. The note with it: Hepatitis C virus, Huh-7; read-out: Genotype 1b (pEC50 class, HCV genotype 1b replicon assay) (converted). The text has this: Assay 1: HCV Genotype 1b Replicon Assay
The HCV genotype 1b replicon cell line was obtained from Apath LLC (Brooklyn, N.Y.) (APC144; Huh7 cell background). This subgenomic replicon contains the N-terminus of the HCV core protein fused to the neomycin-resistance selectable marker. The EMCV IRES lies downstream and drives expression of humanized Renilla luciferase fused to the non-structural proteins NS3-NS5B. This cell line was used to determine compound potency using the luciferase activity readout as a measurement of compound inhibition of replicon levels.
(§1) Cells were grown at 37° C. in a 5% CO2 humidified incubator in DMEM (Invitrogen) with 10% FBS (HyClone), 1×NEAA (Invitrogen), 1× Pen-Strep (Invitrogen), and 500 μg/mL G418 (Invitrogen). On day 1 of the assay, cells were plated at 10,000 cells/well in white 96-well tissue culture plates (Costar) in 200 μL media lacking G418. Four hours later, once the cells have adhered, the media was removed and replaced with media (no G418) containing dose-responses of test compounds. Compounds were initially diluted in DMSO and then diluted another 200× in media to bring the final DMSO concentration down to 0.5%. The cells were incubated with test compounds for 48 hours. At the end of the incubation period, media and compound were removed from the plates and the luciferase activity was determined using Promega Renilla-Glo reagents.
To analyze the data, the luciferase activity was plotted vs. the compound concentration, and EC50 values were determined from a 4-parameter robust fit model with the GraphPad Prism software package (GraphPad Software, Inc., San Diego, Calif.). Results are expressed as the negative decadic logarithm of the EC50 value, pEC50.
Test compounds having a higher pEC50 value in this assay show greater inhibition of HCV genotype 1b replication.
A general note: Replicon systems follow genome replication, usually without infectious particles.

For assay [2], the system named is HCV genotype 1a replicon cell line (APC89; Huh7.5 cell background). In words: HCV Genotype 1a Replicon Assay (NS3-specific protease activity readout). Type of assay: cell-based. The settings on record: Hepatitis C virus, 72 hour incubation, read-out: Genotype 1a (pEC50 class, HCV genotype 1a replicon assay) (converted). The protocol:
Assay 2: HCV Genotype 1a Replicon Assay
The HCV genotype 1a replicon cell line was obtained from Apath LLC (APC89; Huh7.5 cell background). This subgenomic replicon contains the N-terminus of the HCV core protein fused to the neomycin-resistance selectable marker. The EMCV IRES lies downstream and drives expression of the non-structural proteins NS3-NS5B. Compound potencies were determined using the NS3-specific protease activity in lysates as a measurement of compound inhibition of replicon levels.
as §1, with “850” for “500”, “15,000” for “10,000”, “black” for “white”, “had” for “have”, “48 or 72” for “48”, “plates.” for “plates and the luciferase activity was determined using Promega Renilla-Glo reagents.”
To determine the NS3-specific protease activity in lysates, the cells were lysed at room temperature in 50 μL/well of 50 mM Hepes pH 7.5, 150 mM NaCl, 15% Glycerol, 0.15% Triton X-100, 10 mM DTT for 20 minutes with shaking. 50 μL of an NS3/4a protease-specific FRET substrate (Anaspec RET S1 Cat#22991) was then added to the wells at a final concentration of 15 μM. The plates were incubated at 37° C. for 20 minutes, which corresponds to a timepoint at which the protease activity is still in the linear phase. Protease activity was determined by measuring fluorescence (Excitation: 340 nm; Emission: 509 nm).
To analyze the data, the fluorescence was plotted vs. the compound concentration, and EC50 values were determined from a 4-parameter robust fit model using GraphPad Prism software.

Regarding `COC(=O)N[C@H](C(=O)N1CCC[C@H]1c1nc(-c2ccc(-c3cc(F)c(NC(=O)c4ccc(N5CCN(C(=O)[C@H]6CC6(C)C)C[C@H]5C)nc4)cc3C(F)(F)F)cc2)c[nH]1)C(C)C` [Example 51, [(S)-1-((S)-2-{4-[4′-({6-[(R)-4-((S)-2,2-Dimethyl-cyclopropanecarbonyl)-2-methyl-piperazin-1-yl]-pyridine-3-carbonyl}-amino)-5′-fluoro-2′-trifluoromethyl-biphenyl-4-yl]-1H-imidazol-2-yl}-pyrrolidine-1-carbonyl)-2-methyl-propyl]carbamic acid methyl ester], the EC50 in assay [1] and in assay [2] was less than 0.1 nM throughout.
As for `COC(=O)N[C@H](C(=O)N1CCC[C@H]1c1nc(-c2ccc(-c3ccc(NC(=O)c4ccc(N5CCN(C(=O)[C@H]6CC6(C)C)C[C@H]5C)nc4)cc3Cl)cc2)c[nH]1)C(C)C` [Example 49, [(S)-1-((S)-2-{4-[2′-Chloro-4′-({6-[(R)-4-((S)-2,2-dimethyl-cyclopropanecarbonyl)-2-methyl-piperazin-1-yl]-pyridine-3-carbonyl}-amino)-biphenyl-4-yl]-1H-imidazol-2-yl}-pyrrolidine-1-carbonyl)-2-methyl-propyl]-carbamic acid methyl ester], the EC50 in assay [1] and in assay [2] was less than 0.1 nM throughout.
On to `CNC(=O)N1CCC[C@@]1(C)C(=O)N1CCN(c2ccc(C(=O)Nc3cc(OC(F)(F)F)c(-c4ccc(-c5c[nH]c([C@@H]6CCCN6C(=O)[C@@H](NC(=O)OC)C(C)C)n5)cc4)cc3F)cn2)[C@H](C)C1` [Example 27-47], for which the EC50 in assay [1] and in assay [2] was less than 0.1 nM throughout.
Consider `CNC(=O)N1C[C@@H](C)N(c2ccc(C(=O)Nc3ccc(-c4ccc(-c5c[nH]c([C@@H]6CCCN6C(=O)[C@@H](NC(=O)OC)C(C)C)n5)cc4)c(OC(F)(F)F)c3)cn2)C[C@@H]1C` [Example 29, ((S)-1-{(S)-2-[4-(4′-{[6-((2R,5S)-2,5-Dimethyl-4-methylcarbamoyl-piperazin-1-yl)-pyridine-3-carbonyl]-amino}-2′-trifluoromethoxy-biphenyl-4-yl)-1H-imidazol-2-yl]-pyrrolidine-1-carbonyl}-2-methyl-propyl)-carbamic acid methyl ester], for which the EC50 in assay [1] and in assay [2] was less than 0.1 nM in each case.
As for `CNC(=O)N1C[C@@H](C)N(c2ccc(C(=O)Nc3cc(OC(F)(F)F)c(-c4ccc(-c5c[nH]c([C@@H]6CCCN6C(=O)[C@@H](NC(=O)OC)C(C)C)n5)cc4)cc3F)cn2)C[C@@H]1C` [Example 58], the EC50 in assay [1] and in assay [2] was less than 0.1 nM in each case.
Consider `COCC(=O)N1CCC[C@@]1(C)C(=O)N1CCN(c2ccc(C(=O)Nc3cc(OC(F)(F)F)c(-c4ccc(-c5c[nH]c([C@@H]6CCCN6C(=O)[C@@H](NC(=O)OC)C(C)C)n5)cc4)cc3OC)cn2)[C@H](C)C1` [Example 27-31], for which the EC50 in assay [1] and in assay [2] was less than 0.1 nM in each case.
As for `COCCNC(=O)N1CCC[C@@]1(C)C(=O)N1CCN(c2ccc(C(=O)Nc3cc(OC(F)(F)F)c(-c4ccc(-c5c[nH]c([C@@H]6CCCN6C(=O)[C@@H](NC(=O)OC)C(C)C)n5)cc4)cc3F)cn2)[C@H](C)C1` [Example 27-45], the EC50 in assay [1] and in assay [2] was less than 0.1 nM each time.
Take `COC(=O)N[C@H](C(=O)N1CCC[C@H]1c1nc(-c2ccc(-c3ccc(C(=O)Nc4ccc(N5CCN(C(=O)[C@]6(C)CCCN6C(=O)[C@@H](NC(=O)OC)C(C)C)C[C@H]5C)nc4)cc3OC(F)(F)F)cc2)c[nH]1)C(C)C` [Example 56]: the EC50 was less than 0.1 nM in assay [1] and 0.1 to 1 nM in assay [2].
`CNC(=O)N1CCN(c2ccc(C(=O)Nc3ccc(-c4ccc(-c5c[nH]c([C@@H]6CCCN6C(=O)[C@@H](NC(=O)OC)C(C)C)n5)cc4)c(C(F)(F)F)c3)cn2)[C@H](C)C1` [Example 36]: the EC50 was less than 0.1 nM in assay [1] and 0.1 to 1 nM in assay [2].
For `COC(=O)N[C@H](C(=O)N1CCC[C@H]1c1nc(-c2ccc(-c3cc(F)c(NC(=O)c4ccc(N5CCN(C(=O)[C@]6(C)CCCN6C(=O)CO)C[C@H]5C)nc4)cc3OC(F)(F)F)cc2)c[nH]1)C(C)C` [Example 27-48], the EC50 in assay [1] and in assay [2] was less than 0.1 nM throughout.
On to `COCC(=O)N1CCC[C@@]1(C)C(=O)N1CCN(c2ccc(C(=O)Nc3cc(OC(F)(F)F)c(-c4ccc(-c5c[nH]c([C@@H]6CCCN6C(=O)[C@@H](NC(=O)OC)C(C)C)n5)cc4)cc3F)cn2)[C@H](C)C1` [Example 27-46], for which the EC50 in assay [1] and in assay [2] was less than 0.1 nM in each case.
Regarding `CCOc1cc(NC(=O)c2ccc(N3CCN(C(=O)[C@]4(C)CCCN4C(=O)[C@@H](NC(=O)OC)C(C)C)C[C@H]3C)nc2)ccc1-c1ccc(-c2c[nH]c([C@@H]3CCCN3C(=O)[C@@H](NC(=O)OC)C(C)C)n2)cc1` [Example 21, [(S)-1-((S)-2-{4-[2′-Ethoxy-4′-({6-[(R)-4-((S)-1-{(S)-2-methoxycarbonylamino-3-methyl-butyryl}-2-methyl-pyrrolidine-2-carbonyl)-2-methyl-piperazin-1-yl]-pyridine-3-carbonyl}-amino)-biphenyl-4-yl]-1H-imidazol-2-yl}-pyrrolidine-1-carbonyl)-2-methyl-propyl]-carbamic acid methyl ester], the EC50 in assay [1] and in assay [2] was less than 0.1 nM each time.
On to `CNC(=O)N1CCN(c2ccc(C(=O)Nc3ccc(-c4ccc(-c5c[nH]c([C@@H]6CCCN6C(=O)[C@@H](NC(=O)OC)C(C)C)n5)cc4)c(F)c3)cn2)[C@H](C)C1` [Example 47], for which the EC50 in assay [1] is less than 0.1 nM; in assay [2], 0.1 to 1 nM.
In the case of `COC(=O)N[C@H](C(=O)N1CCC[C@H]1c1nc(-c2ccc(-c3ccc(NC(=O)c4ccc(N5CCN(C(=O)[C@]6(C)CCCN6C(C)=O)C[C@H]5C)nc4)cc3C)cc2)c[nH]1)C(C)C` [Example 15, [(S)-1-((S)-2-{5-[4′-({6-[(R)-4-((S)-1-Acetyl-2-methyl-pyrrolidine-2-carbonyl)2-methyl-piperazin-1-yl]-pyridine-3-carbonyl}-amino)-2′-methyl-biphenyl-4-yl]-1H-imidazol-2-yl}-pyrrolidine-1-carbonyl)-2-methyl-propyl]-carbamic acid methyl ester], the EC50 in assay [1] and in assay [2] was less than 0.1 nM each time.
As to `COC(=O)N[C@H](C(=O)N1CCC[C@H]1c1nc(-c2ccc(-c3ccc(NC(=O)c4ccc(N5CCN(C(=O)c6c[nH]cn6)C[C@H]5C)nc4)cc3F)cc2)c[nH]1)C(C)C` [Example 48], the EC50 in assay [1] is less than 0.1 nM; in assay [2], 0.1 to 1 nM.
In the case of `CNC(=O)N1CCN(c2ccc(C(=O)Nc3cc(OC(F)(F)F)c(-c4ccc(-c5c[nH]c([C@@H]6CCCN6C(=O)[C@@H](NC(=O)OC)C(C)C)n5)cc4)cc3Cl)cn2)[C@H](C)C1` [Example 27-68], the EC50 in assay [1] and in assay [2] was less than 0.1 nM throughout.
For the compound `COC(=O)N[C@H](C(=O)N1CCC[C@H]1c1nc(-c2ccc(-c3ccc(NC(=O)c4ccc(N5CCN(C(=O)[C@H]6CC6(C)C)C[C@H]5C)nc4)cc3OC(F)(F)F)cc2)c[nH]1)C(C)C` [Example 25, [(S)-1-((S)-2-{5-[4′-({6-[(R)-4-((S)-2,2-Dimethyl-cyclopropanecarbonyl)-2-methyl-piperazin-1-yl]-pyridine-3-carbonyl}-amino)-2′-trifluoromethoxy-biphenyl-4-yl]-1H-imidazol-2-yl}-pyrrolidine-1-carbonyl)-2-methyl-propyl]-carbamic acid methyl ester], the EC50 in assay [1] and in assay [2] was less than 0.1 nM in each case.
